Some test systems named below: MDA-MB-231 breast; HCT-116 colon; HOP-62 NSCLC; SNB-19 CNS; NCI-H522 lung; TK-10 renal; OVCAR-3 ovarian; M14 melanoma; SK-MEL-28 melanoma; SF-539 CNS.
Experiment in all cases: NCI anticancer screen, dose series, 48 h

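All cell lines were grown in 96-well plates and treated with compound for 48 hours. The concentration for 50% growth inhibition is given as GI50. TGI marks complete inhibition of growth.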

Turning to `C[C@]12Cc3cnc(-c4ccccc4)nc3C[C@@H]1CC[C@@H]1[C@@H]2CC[C@@]2(C)[C@H]1CC[C@]2(C)O`, the TGI in the test on MDA-MB-231 breast was 73.1 µM; in the test with HCT-116 colon, 48.8 µM; in the test on HOP-62 NSCLC it was 41.6 µM; in the test on SNB-19 CNS, 44.3 µM; in the test with NCI-H522 lung, 31.2 µM; in the test with TK-10 renal it was 39.1 µM. Moreover, the TGI with OVCAR-3 ovarian turned out to be 54.4 µM; in the test on M14 melanoma, 32.5 µM; with SK-MEL-28 melanoma it was 56.9 µM; with SF-539 CNS, 9.55 µM.
As to `O=C1CCCC/C1=C1/SC(=Nc2ccccc2)C(=Nc2ccccc2)N1c1ccccc1`, the TGI with MDA-MB-231 breast, in the test with HCT-116 colon, in the test on HOP-62 NSCLC, in the test with SNB-19 CNS, with NCI-H522 lung and with OVCAR-3 ovarian was more than 100 µM in each case. Further, the TGI with M14 melanoma and in the test on SK-MEL-28 melanoma was more than 100 µM each time.
As for `O=NN1C(c2ccccc2)C2CCCC(C2=O)C1c1ccccc1` (stereo not drawn), the TGI in the test on HCT-116 colon is more than 63.1 µM; with HOP-62 NSCLC, 56 µM; with SNB-19 CNS it was more than 92.5 µM; in the test on NCI-H522 lung, 46.4 µM; with OVCAR-3 ovarian, 9.28 µM; with SK-MEL-28 melanoma, 44.3 µM. Besides, the TGI in the test on SF-539 CNS is more than 100 µM.
With `O=C(O)C(O)(c1ccc(-c2ccccc2)cc1)c1ccc(-c2ccccc2)cc1`, the TGI with MDA-MB-231 breast was 79.1 µM; in the test on HCT-116 colon it was 62.2 µM; in the test with HOP-62 NSCLC it was 46.3 µM; in the test on SNB-19 CNS, more than 100 µM; in the test on NCI-H522 lung, 47.5 µM; in the test on TK-10 renal, more than 100 µM. Also, the TGI in the test with OVCAR-3 ovarian was 30.3 µM; in the test with M14 melanoma it was more than 100 µM; in the test with SK-MEL-28 melanoma, more than 100 µM.
`COC1CC(OC2CCC3(C)C(=CCC4C3C(OC(C)=O)C(OC(=O)CC(C)C)C3(C)C(C(C)=O)CCC43O)C2)OC(C)C1OC1CC(OC)C(OC2CC(OC)C(OC3OC(C)C(O)C(OC)C3O)C(C)O2)C(C)O1` (stereo not drawn): the TGI was 65.6 µM in the test on MDA-MB-231 breast; 60.6 µM in the test with HCT-116 colon; more than 100 µM in the test on HOP-62 NSCLC; more than 100 µM with SNB-19 CNS; more than 100 µM in the test on NCI-H522 lung; more than 100 µM in the test with TK-10 renal. Moreover, the TGI is more than 100 µM in the test on OVCAR-3 ovarian, more than 100 µM with M14 melanoma, more than 100 µM in the test on SK-MEL-28 melanoma and 51.2 µM in the test on SF-539 CNS.
`COc1ccc(NC(=S)NNC(=O)c2nsc3ccccc23)cc1`: the TGI in the test on HCT-116 colon was more than 100 µM; in the test on HOP-62 NSCLC it was more than 100 µM; in the test on SNB-19 CNS it was more than 100 µM; in the test on TK-10 renal, more than 100 µM; in the test with OVCAR-3 ovarian it was 52.9 µM; with M14 melanoma, 36.7 µM. Moreover, the values for the TGI with SK-MEL-28 melanoma and in the test with SF-539 CNS were more than 100 µM and 75.8 µM, respectively.
`COc1ccc(C(=O)NC2=C(Cl)C(=O)c3ccccc3C2=O)cc1`: the TGI turned out to be 14.6 µM in the test on MDA-MB-231 breast; 1.52 µM in the test with HCT-116 colon; 60.8 µM in the test with HOP-62 NSCLC; 17.4 µM with SNB-19 CNS; 1.49 µM in the test on NCI-H522 lung; 7.7 µM with TK-10 renal. In addition, the TGI is 6.26 µM with OVCAR-3 ovarian, 6.95 µM in the test with M14 melanoma, 17.9 µM with SK-MEL-28 melanoma and 11.6 µM with SF-539 CNS.
As for `Clc1ccc(C2CC(c3cccc(Nc4ccncc4)c3)=NN2c2ccc(Cl)cc2)cc1` (stereo not drawn), the figures for the GI50 in the test on TK-10 renal, with SK-MEL-28 melanoma and in the test on SF-539 CNS were 1.87 µM, 1.67 µM and 1.64 µM, respectively. The TGI in the test with TK-10 renal was found to be 3.5 µM; with SK-MEL-28 melanoma it was 3.09 µM; with SF-539 CNS, 3.03 µM.
Consider `Nc1c(OCC(=O)O)ccc2cc(S(=O)(=O)O)ccc12`, for which the TGI in the test on MDA-MB-231 breast, with HCT-116 colon, in the test with HOP-62 NSCLC, in the test on SNB-19 CNS, in the test on NCI-H522 lung and with TK-10 renal was more than 100 µM in each case. Moreover, the TGI in the test with OVCAR-3 ovarian, with M14 melanoma, in the test with SK-MEL-28 melanoma and in the test with SF-539 CNS was more than 100 µM in each case.
Regarding `Clc1cc2ccccc2c2ccccc12`, the TGI with MDA-MB-231 breast, with HCT-116 colon, with HOP-62 NSCLC, with SNB-19 CNS, in the test on NCI-H522 lung and in the test with TK-10 renal was more than 100 µM in each case. The TGI in the test on OVCAR-3 ovarian, with M14 melanoma, in the test on SK-MEL-28 melanoma and in the test on SF-539 CNS was more than 100 µM each time.
Regarding `c1ccc2c(c1)OCCc1cn[nH]c1-2`, the TGI in the test on HCT-116 colon, with HOP-62 NSCLC, with SNB-19 CNS, with NCI-H522 lung, in the test with OVCAR-3 ovarian and with SK-MEL-28 melanoma was more than 100 µM in each case. The TGI with SF-539 CNS is more than 100 µM.
For the compound `CCOC(=O)c1nc2ccccc2n(CC)c1=O`, the TGI in the test with MDA-MB-231 breast, with HCT-116 colon, with HOP-62 NSCLC, in the test with SNB-19 CNS, with NCI-H522 lung and in the test on TK-10 renal was more than 100 µM throughout. Further, the TGI in the test with OVCAR-3 ovarian, in the test on M14 melanoma, with SK-MEL-28 melanoma and with SF-539 CNS was more than 100 µM each time.
Turning to `CC[C@@]1(OC(=O)CN(C)C)C(=O)OCc2c1cc1n(c2=O)Cc2cc3c(N)cccc3nc2-1`, the GI50 in the test with MDA-MB-231 breast is 1.07 µM; in the test with HOP-62 NSCLC, 0.0119 µM; in the test with SNB-19 CNS it was 0.0252 µM; in the test on NCI-H522 lung, 0.0744 µM; in the test with TK-10 renal, 1.68 µM; with OVCAR-3 ovarian, 0.0383 µM. Further, the GI50 in the test with M14 melanoma is 0.0178 µM; in the test on SK-MEL-28 melanoma, 0.297 µM. In addition, the TGI with MDA-MB-231 breast is more than 100 µM; in the test with HOP-62 NSCLC, 0.432 µM; in the test on SNB-19 CNS, more than 100 µM; in the test with NCI-H522 lung, 3.36 µM; with TK-10 renal it was more than 100 µM; with OVCAR-3 ovarian, 0.218 µM. In addition, the TGI with M14 melanoma came out at 0.128 µM; in the test with SK-MEL-28 melanoma, 4.28 µM.
Take `OC(c1ccc(Cl)cc1)(c1ccc(Cl)cc1)c1cncnc1`: the TGI came to 33.9 µM with MDA-MB-231 breast; 28.6 µM in the test on HCT-116 colon; 35.3 µM in the test on HOP-62 NSCLC; 48.8 µM with SNB-19 CNS; 57.5 µM in the test on TK-10 renal; 32.2 µM with OVCAR-3 ovarian. Besides, the results for the TGI with M14 melanoma and with SK-MEL-28 melanoma were 32.8 µM and 38 µM, respectively.
Turning to `CN(C)CCCNc1ccc2nnn3c4ccc(OC(=O)c5ccccc5)cc4c(=O)c1c23`, the TGI in the test with MDA-MB-231 breast worked out at 27.3 µM; in the test with HCT-116 colon, 24.7 µM; in the test with HOP-62 NSCLC, 20.9 µM; in the test with SNB-19 CNS, 25.4 µM; in the test with NCI-H522 lung, 10.5 µM; with TK-10 renal, 24.3 µM. The TGI in the test on OVCAR-3 ovarian was determined as 24.9 µM; with M14 melanoma it was 28.3 µM; in the test with SK-MEL-28 melanoma, 30.2 µM; in the test with SF-539 CNS, 22.7 µM.
Consider `CN(CCO)Cc1ncccc1O`, for which the TGI in the test on MDA-MB-231 breast, with HOP-62 NSCLC, with SNB-19 CNS, in the test with NCI-H522 lung, with TK-10 renal and with OVCAR-3 ovarian was more than 100 µM throughout. For the same compound, the TGI in the test with M14 melanoma, with SK-MEL-28 melanoma and in the test with SF-539 CNS was more than 100 µM in each case.
`COc1cc2c(cc1OC)C1c3ccccc3CCN1CCC2` (stereo not drawn): the TGI in the test on MDA-MB-231 breast, with HCT-116 colon, in the test on HOP-62 NSCLC, in the test with SNB-19 CNS, in the test with TK-10 renal and in the test on OVCAR-3 ovarian was more than 100 µM each time. Besides, the TGI in the test with M14 melanoma, in the test on SK-MEL-28 melanoma and with SF-539 CNS was more than 100 µM each time.
Turning to `NC1C=NNC1=O` (stereo not drawn), the TGI with SNB-19 CNS, in the test with NCI-H522 lung, with TK-10 renal, with M14 melanoma, in the test with SK-MEL-28 melanoma and in the test with SF-539 CNS was more than 100 µM throughout.

For the origin of these results see PubChem BioAssay (NCI).
